Measured values taken from ChEMBL document CHEMBL2390902, “Discovery of 1-(1,3,5-triazin-2-yl)piperidine-4-carboxamides as inhibitors of soluble epoxide hydrolase” (Bioorg Med Chem Lett, 2013).

Tests used:
[1] = Volume of distribution at steady state in rat at 2 mg/kg, iv; format: ADME, organism-based; set-up: dose 2 mg/kg, route intravenous; settings: in vivo, read-out: Vdss
Rattus norvegicus [2] = test: Dose normalized AUC in rat at 2 mg/kg, iv; format: ADME, organism-based; set-up: dose 2 mg/kg, route intravenous; settings: in vivo
[3] = Half life in rat at 2 mg/kg, iv; format: ADME, organism-based; set-up: dose 2 mg/kg, route intravenous; settings: in vivo
[4] = Plasma clearance in rat at 2 mg/kg, iv; format: ADME, organism-based; set-up: dose 2 mg/kg, route intravenous
[5] = Fraction unbound in rat plasma; format: ADME, cell-free
[6] = Plasma clearance in rat at 1 mg/kg, iv; format: ADME, organism-based; set-up: dose 1 mg/kg, route intravenous
[7] = target: Sodium-dependent noradrenaline transporter (Homo sapiens) (UniProt P23975); test: Inhibition of human norepinephrine transporter at 1 uM relative to control
Homo sapiens [8] = species on record: Homo sapiens; test: Inhibition of human chloride channel at 1 uM relative to control
Homo sapiens [9] = species on record: Homo sapiens; test: Inhibition of human SKCa channel at 1 uM relative to control
[10] = target: Vasopressin V1a receptor (Homo sapiens) (UniProt P37288); test: Inhibition of human vasopressin V1a receptor at 1 uM relative to control
[11] = target: 5-hydroxytryptamine receptor 7 (Homo sapiens) (UniProt P34969); test: Inhibition of human 5-HT7 receptor at 1 uM relative to control
Homo sapiens [12] = species on record: Homo sapiens; test: Inhibition of human sigma receptor at 1 uM relative to control
[13] = target: 5-hydroxytryptamine receptor 6 (Homo sapiens) (UniProt P50406); test: Inhibition of human 5-HT6 receptor at 1 uM relative to control
Sequence of 5-hydroxytryptamine receptor 6 (Homo sapiens) (P50406 whole entry): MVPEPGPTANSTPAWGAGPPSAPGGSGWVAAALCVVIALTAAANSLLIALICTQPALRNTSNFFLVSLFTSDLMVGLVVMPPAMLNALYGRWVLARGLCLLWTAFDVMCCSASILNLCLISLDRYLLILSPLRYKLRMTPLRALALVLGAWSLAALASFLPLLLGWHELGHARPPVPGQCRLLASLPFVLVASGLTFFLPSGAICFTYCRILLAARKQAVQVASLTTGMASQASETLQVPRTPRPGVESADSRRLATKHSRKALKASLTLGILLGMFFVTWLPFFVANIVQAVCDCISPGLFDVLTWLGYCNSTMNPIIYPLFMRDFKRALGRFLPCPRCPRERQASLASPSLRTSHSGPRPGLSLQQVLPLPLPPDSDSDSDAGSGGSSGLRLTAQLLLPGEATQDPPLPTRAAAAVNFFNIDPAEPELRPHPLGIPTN

[14] = target: 5-hydroxytryptamine receptor 3A (Homo sapiens) (UniProt P46098); test: Inhibition of human 5-HT3 receptor at 1 uM relative to control
Sequence of 5-hydroxytryptamine receptor 3A (Homo sapiens) (P46098 whole entry): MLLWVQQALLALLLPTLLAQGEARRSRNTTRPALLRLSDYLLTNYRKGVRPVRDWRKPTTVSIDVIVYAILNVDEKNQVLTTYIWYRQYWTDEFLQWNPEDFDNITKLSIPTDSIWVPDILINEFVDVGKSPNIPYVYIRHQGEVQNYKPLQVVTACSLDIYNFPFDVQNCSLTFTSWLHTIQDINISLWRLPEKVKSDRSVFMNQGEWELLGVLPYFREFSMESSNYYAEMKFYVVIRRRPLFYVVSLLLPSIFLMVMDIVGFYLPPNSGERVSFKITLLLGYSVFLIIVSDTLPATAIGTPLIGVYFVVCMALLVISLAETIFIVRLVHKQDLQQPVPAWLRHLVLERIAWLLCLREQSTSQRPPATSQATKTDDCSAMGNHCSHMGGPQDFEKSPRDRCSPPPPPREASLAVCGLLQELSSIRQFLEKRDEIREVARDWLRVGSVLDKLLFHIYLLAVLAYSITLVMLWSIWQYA

[15] = target: 5-hydroxytryptamine receptor 5A (Homo sapiens) (UniProt P47898); test: Inhibition of human 5-HT5A receptor at 1 uM relative to control
[16] = target: 5-hydroxytryptamine receptor 1B (Homo sapiens) (UniProt P28222); test: Inhibition of human 5-HT1B receptor at 1 uM relative to control
[17] = target: Mu-type opioid receptor (Homo sapiens) (UniProt P35372); test: Inhibition of human mu opioid receptor at 1 uM relative to control
Homo sapiens [18] = species on record: Homo sapiens; test: Inhibition of human P2X receptor at 1 uM relative to control
[19] = target: Kappa-type opioid receptor (Homo sapiens) (UniProt P41145); test: Inhibition of human kappa opioid receptor at 1 uM relative to control
Sequence of Kappa-type opioid receptor (Homo sapiens) (P41145 whole entry): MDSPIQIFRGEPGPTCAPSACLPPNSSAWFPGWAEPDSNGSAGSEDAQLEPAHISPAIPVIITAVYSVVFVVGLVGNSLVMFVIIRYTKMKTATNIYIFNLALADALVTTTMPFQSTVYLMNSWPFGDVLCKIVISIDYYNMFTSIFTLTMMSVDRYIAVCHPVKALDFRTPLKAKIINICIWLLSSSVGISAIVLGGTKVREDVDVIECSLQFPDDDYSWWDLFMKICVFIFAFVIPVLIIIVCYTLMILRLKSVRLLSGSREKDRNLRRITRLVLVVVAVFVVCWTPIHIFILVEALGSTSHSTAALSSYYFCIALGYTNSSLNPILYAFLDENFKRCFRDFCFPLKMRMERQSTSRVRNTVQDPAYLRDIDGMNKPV

[20] = target: Neuropeptide Y receptor type 2 (Homo sapiens) (UniProt P49146); test: Inhibition of human Y2 receptor at 1 uM relative to control
[21] = target: Substance-K receptor (Homo sapiens) (UniProt P21452); test: Inhibition of human NK2 receptor at 1 uM relative to control
[22] = target: Neuromedin-K receptor (Homo sapiens) (UniProt P29371); test: Inhibition of human NK3 receptor at 1 uM relative to control
Sequence of Neuromedin-K receptor (Homo sapiens) (P29371 whole entry): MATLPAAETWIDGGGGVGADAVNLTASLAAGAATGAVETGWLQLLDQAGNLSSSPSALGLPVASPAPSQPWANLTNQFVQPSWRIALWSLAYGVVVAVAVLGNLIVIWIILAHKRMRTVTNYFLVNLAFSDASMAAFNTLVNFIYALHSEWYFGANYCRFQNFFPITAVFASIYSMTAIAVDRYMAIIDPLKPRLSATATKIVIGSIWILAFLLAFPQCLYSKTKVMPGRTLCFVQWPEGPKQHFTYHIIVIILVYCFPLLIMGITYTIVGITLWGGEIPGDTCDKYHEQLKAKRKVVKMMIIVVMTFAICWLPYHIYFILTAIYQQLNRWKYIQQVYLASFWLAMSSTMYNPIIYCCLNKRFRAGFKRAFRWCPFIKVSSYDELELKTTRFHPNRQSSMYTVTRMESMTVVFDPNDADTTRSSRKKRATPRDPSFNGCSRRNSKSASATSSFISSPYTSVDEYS

[23] = target: Muscarinic acetylcholine receptor M3 (Homo sapiens) (UniProt P20309); test: Inhibition of human M3 receptor at 1 uM relative to control
[24] = target: Muscarinic acetylcholine receptor M1 (Homo sapiens) (UniProt P11229); test: Inhibition of human M1 receptor at 1 uM relative to control
Sequence of Muscarinic acetylcholine receptor M1 (Homo sapiens) (P11229 whole entry): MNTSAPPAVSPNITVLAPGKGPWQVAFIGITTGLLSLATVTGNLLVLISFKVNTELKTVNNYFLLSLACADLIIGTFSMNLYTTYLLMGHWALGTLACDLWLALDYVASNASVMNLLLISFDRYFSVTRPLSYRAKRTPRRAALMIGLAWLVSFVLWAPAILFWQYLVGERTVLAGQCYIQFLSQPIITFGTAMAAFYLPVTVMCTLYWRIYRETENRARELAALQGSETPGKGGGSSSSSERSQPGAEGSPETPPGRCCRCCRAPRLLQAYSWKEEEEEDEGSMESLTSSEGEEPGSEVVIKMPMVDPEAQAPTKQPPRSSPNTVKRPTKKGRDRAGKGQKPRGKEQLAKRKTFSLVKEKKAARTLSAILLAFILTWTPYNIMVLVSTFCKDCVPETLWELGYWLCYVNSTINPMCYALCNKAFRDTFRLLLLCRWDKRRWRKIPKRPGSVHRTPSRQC

[25] = target: Melatonin receptor type 1A (Homo sapiens) (UniProt P48039); test: Inhibition of human MT1 receptor at 1 uM relative to control
Sequence of Melatonin receptor type 1A (Homo sapiens) (P48039 whole entry): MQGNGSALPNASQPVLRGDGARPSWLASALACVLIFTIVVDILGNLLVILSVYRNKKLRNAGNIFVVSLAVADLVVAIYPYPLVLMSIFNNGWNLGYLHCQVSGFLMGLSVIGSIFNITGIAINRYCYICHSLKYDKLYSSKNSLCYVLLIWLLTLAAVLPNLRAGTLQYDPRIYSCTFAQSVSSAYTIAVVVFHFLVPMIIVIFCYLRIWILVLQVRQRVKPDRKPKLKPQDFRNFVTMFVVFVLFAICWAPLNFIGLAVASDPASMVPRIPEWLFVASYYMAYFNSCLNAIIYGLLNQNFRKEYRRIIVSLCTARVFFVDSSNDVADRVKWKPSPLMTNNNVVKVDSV

[26] = target: Melanocortin receptor 4 (Homo sapiens) (UniProt P32245); test: Inhibition of human MC4 receptor at 1 uM relative to control
Sequence of Melanocortin receptor 4 (Homo sapiens) (P32245 whole entry): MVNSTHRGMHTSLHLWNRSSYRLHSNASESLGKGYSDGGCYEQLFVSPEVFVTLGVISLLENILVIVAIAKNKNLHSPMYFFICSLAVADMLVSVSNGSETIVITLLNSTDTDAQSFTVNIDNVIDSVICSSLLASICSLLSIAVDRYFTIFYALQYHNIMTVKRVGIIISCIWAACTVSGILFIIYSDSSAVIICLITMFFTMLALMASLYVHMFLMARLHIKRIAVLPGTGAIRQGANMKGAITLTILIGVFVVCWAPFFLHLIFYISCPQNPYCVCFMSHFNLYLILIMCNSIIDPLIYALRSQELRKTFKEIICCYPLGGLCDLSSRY

[27] = target: Histamine H1 receptor (Homo sapiens) (UniProt P35367); test: Inhibition of human histamine H1 receptor at 1 uM relative to control
Sequence of Histamine H1 receptor (Homo sapiens) (P35367 whole entry): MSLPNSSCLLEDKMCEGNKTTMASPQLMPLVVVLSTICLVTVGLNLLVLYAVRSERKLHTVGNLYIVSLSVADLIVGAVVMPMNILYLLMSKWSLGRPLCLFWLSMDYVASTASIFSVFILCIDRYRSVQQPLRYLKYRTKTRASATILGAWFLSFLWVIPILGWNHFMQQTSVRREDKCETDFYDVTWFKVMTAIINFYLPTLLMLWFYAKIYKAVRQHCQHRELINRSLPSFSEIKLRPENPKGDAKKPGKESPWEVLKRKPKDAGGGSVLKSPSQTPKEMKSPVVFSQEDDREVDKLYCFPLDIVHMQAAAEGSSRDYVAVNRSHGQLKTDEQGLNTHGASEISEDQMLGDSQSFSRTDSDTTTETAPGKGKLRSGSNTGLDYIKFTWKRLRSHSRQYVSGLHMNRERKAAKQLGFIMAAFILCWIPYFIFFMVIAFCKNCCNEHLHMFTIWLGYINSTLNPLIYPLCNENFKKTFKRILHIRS

[28] = target: Histamine H2 receptor (Homo sapiens) (UniProt P25021); test: Inhibition of human histamine H2 receptor at 1 uM relative to control
Sequence of Histamine H2 receptor (Homo sapiens) (P25021 whole entry): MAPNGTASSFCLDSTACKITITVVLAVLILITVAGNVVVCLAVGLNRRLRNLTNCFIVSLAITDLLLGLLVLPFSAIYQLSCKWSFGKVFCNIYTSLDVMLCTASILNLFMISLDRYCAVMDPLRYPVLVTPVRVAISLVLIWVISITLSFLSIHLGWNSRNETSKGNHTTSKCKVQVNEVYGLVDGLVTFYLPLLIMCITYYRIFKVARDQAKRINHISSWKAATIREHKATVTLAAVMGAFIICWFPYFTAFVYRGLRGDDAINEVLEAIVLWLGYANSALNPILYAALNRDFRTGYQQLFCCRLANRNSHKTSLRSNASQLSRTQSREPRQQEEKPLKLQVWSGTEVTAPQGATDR

Homo sapiens [29] = species on record: Homo sapiens; test: Inhibition of human GABA receptor at 1 uM relative to control
Homo sapiens [30] = species on record: Homo sapiens; test: Inhibition of human BZD receptor at 1 uM relative to control
[31] = target: Cholecystokinin receptor type A (Homo sapiens) (UniProt P32238); test: Inhibition of human CCK1 receptor at 1 uM relative to control
Sequence of Cholecystokinin receptor type A (Homo sapiens) (P32238 whole entry): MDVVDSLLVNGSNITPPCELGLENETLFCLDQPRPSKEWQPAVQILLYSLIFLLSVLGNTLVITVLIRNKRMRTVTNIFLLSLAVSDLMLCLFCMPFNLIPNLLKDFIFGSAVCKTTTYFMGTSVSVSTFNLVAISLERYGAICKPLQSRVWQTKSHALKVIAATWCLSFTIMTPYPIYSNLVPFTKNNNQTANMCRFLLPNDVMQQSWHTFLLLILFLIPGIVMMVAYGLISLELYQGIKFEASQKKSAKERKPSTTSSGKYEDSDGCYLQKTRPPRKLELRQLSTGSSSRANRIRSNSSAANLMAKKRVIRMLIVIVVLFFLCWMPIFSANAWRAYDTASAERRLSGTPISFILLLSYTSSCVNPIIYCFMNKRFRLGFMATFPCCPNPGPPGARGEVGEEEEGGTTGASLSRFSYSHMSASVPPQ

[32] = target: Beta-1 adrenergic receptor (Homo sapiens) (UniProt P08588); test: Inhibition of human beta1 receptor at 1 uM relative to control
[33] = target: Adrenergic receptor alpha-2 (Homo sapiens) (UniProt P08913+P18825+P18089); test: Inhibition of human alpha2 receptor at 1 uM relative to control
[34] = target: Beta-2 adrenergic receptor (Homo sapiens) (UniProt P07550); test: Inhibition of human beta2 receptor at 1 uM relative to control
[35] = target: Adrenergic receptor alpha-1 (Homo sapiens) (UniProt P35348+P25100+P35368); test: Inhibition of human alpha1 receptor at 1 uM relative to control
[36] = target: Adenosine receptor A3 (Homo sapiens) (UniProt P0DMS8); test: Inhibition of human adenosine A3 receptor at 1 uM relative to control
Sequence of Adenosine receptor A3 (Homo sapiens) (P0DMS8 whole entry): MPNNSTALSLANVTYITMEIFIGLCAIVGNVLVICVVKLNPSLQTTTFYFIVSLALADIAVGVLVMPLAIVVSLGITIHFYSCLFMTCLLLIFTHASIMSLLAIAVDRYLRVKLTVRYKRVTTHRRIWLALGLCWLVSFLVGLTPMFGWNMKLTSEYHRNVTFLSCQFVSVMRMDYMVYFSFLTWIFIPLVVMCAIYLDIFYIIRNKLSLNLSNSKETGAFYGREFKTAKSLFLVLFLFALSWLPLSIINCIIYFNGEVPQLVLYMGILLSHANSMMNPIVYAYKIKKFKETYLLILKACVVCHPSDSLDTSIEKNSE

[37] = target: Adenosine receptor A2a (Homo sapiens) (UniProt P29274); test: Inhibition of human adenosine A2A receptor at 1 uM relative to control
Sequence of Adenosine receptor A2a (Homo sapiens) (P29274 whole entry): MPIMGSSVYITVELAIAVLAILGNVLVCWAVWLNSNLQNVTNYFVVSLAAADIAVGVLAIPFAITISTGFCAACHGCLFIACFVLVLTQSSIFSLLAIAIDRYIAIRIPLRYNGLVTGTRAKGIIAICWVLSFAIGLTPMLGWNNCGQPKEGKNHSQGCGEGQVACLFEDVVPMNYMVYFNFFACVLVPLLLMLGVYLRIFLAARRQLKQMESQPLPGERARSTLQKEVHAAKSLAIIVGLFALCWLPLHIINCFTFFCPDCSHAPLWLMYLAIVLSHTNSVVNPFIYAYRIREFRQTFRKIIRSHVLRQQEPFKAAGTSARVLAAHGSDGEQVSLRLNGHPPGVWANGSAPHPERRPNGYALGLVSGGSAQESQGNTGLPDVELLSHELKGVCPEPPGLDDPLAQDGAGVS

Rattus norvegicus [38] = test: Free maximum concentration of drug in rat at 2 mg/kg, po; format: ADME, organism-based; set-up: dose 2 mg/kg, route oral; settings: in vivo
[39] = Cmax in rat at 20 mg/kg, po; format: ADME, organism-based; set-up: dose 20 mg/kg, route oral; settings: in vivo
Rattus norvegicus [40] = test: In vivo inhibition of soluble epoxide hydrolase in rat assessed as increase in leukotoxin/leukotoxin diol ratio in plasma at 0.2 to 20 mg/kg, po measured after 4 hrs relative to vehicle-treated control; format: functional; settings: dose mg/kg 0.2-20
[41] = target: Voltage-dependent L-type calcium channel subunit alpha-1C (Homo sapiens, UniProt Q13936); test: Inhibition of CaV1.2 (unknown origin)
[42] = target: T1, Bifunctional epoxide hydrolase 2 (Homo sapiens, UniProt P34913)
T1 sequence (P34913 whole entry): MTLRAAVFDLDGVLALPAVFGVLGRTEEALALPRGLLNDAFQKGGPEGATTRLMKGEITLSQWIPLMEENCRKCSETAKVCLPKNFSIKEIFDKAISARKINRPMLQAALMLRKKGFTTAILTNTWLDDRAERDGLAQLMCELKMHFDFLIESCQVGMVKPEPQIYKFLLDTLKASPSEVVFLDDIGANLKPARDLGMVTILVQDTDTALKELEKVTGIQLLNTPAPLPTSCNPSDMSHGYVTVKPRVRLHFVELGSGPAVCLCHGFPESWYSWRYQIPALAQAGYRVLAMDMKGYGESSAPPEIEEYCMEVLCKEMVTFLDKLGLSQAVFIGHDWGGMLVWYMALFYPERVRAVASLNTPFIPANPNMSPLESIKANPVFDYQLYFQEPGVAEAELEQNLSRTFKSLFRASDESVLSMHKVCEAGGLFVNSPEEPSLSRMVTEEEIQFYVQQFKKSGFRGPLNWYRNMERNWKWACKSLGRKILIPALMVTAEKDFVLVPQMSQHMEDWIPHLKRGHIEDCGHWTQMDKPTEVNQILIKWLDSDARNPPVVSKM
Description: Inhibition of human soluble epoxide hydrolase using PHOME as substrate assessed as formation of 6-methoxy-2-naphthaldehyde incubated for 10 mins prior to substrate addition measured with in 30 mins by fluorescence assay

CNc1nc(C)nc(N2CCC(C(=O)NCc3ccc(Br)cc3OC(F)(F)F)CC2)n1
Vd [1]: 2.1 L/kg | AUC/dose (Rattus norvegicus [2]): 1.3 kg·h/L | half-life [3]: 4.6 h | clearance [4]: 12 mL/min/kg | fraction unbound [5]: 0.015 | clearance [6]: 12 mL/min/kg | inhibition [7]: < 50% | inhibition (Homo sapiens [8]): < 50% | inhibition (Homo sapiens [9]): < 50% | inhibition [10]: < 50% | inhibition [11]: < 50% | inhibition (Homo sapiens [12]): < 50% | inhibition [13]: < 50% | inhibition [14]: < 50% | inhibition [15]: < 50% | inhibition [16]: < 50% | inhibition [17]: < 50% | inhibition (Homo sapiens [18]): < 50% | inhibition [19]: < 50% | inhibition [20]: < 50% | inhibition [21]: < 50% | inhibition [22]: < 50% | inhibition [23]: < 50% | inhibition [24]: < 50% | inhibition [25]: < 50% | inhibition [26]: < 50% | inhibition [27]: < 50% | inhibition [28]: < 50% | inhibition (Homo sapiens [29]): < 50% | inhibition (Homo sapiens [30]): < 50% | inhibition [31]: < 50% | inhibition [32]: < 50% | inhibition [33]: < 50% | inhibition [34]: < 50% | inhibition [35]: < 50% | inhibition [36]: < 50% | inhibition [37]: < 50% | fCmax (Rattus norvegicus [38]): 3 nM | Cmax [39]: 1490 nM | inhibition (INH) (Rattus norvegicus [40]): 50% | IC50 [41]: > 10000 nM | IC50 [42]: 0.5 nM
